Read-outs that look alike come from different tables or passages of the source.
What was measured:
Type in all cases: cell-based
[1] = tested on: AKT S473 phosphorylation (mTORC2); test: AlphaLISA/MSD analysis of AKT phosphorylation in MDA-MB-468 cells; details: for IC50: Homo sapiens
Method: (§1) Cell culture and reagents. Cells were obtained from ATCC, grown in appropriate medium supplemented with 10% fetal bovine serum and 1% penicillin/streptomycin and maintained at 37 °C in a humidified incubator at 5% CO 2.
(§2) AlphaLISA and MesoScale Discovery (MSD) analysis of 4EBP1, S6K and AKT phosphorylation. mTOR substrate phosphorylation in MDA-MB-468 cells was assayed using AlphaLISA SureFire Ultra kits for p4EBP1 Thr37/46, p-P70S6K Thr389 and p-AKT1/2/3 Ser473 (PerkinElmer), and MSD Multi-Array Assay Systems for Phospho-4EBP1 (Thr37/46) and Phospho-AKT (Ser473) (MSD). Cells were seeded at 25,000 cells per well and exposed the next day to serial three-fold dilutions of compounds in complete medium with 0.1% dimethylsulfoxide (DMSO). After indicated incubation times, cells were lysed and AlphaLISA or MSD performed according to the manufacturers’ protocols. Samples were read using an EnVision Multilabel Plate Reader (PerkinElmer) using standard AlphaLISA settings or using an MSD plate reader. Data were plotted as a function of logM [compound] with a sigmoidal concentration response (variable slope) model fitted to the data to estimate the inhibitor half-maximum effective concentration (EC 50) in Prism 7 (GraphPad). Alternatively, results were analyzed as percentage of control in which 0% was set as signal from 1 μM Torin1 and 100% was set as the mean of DMSO wells on each plate, and inhibitor EC 50 was estimated as described

[2] = tested on: p-P70S6K Thr389; test: AlphaLISA/MSD analysis of S6K phosphorylation in MDA-MB-468 cells; details: Homo sapiens; MDA-MB-468 cells; read-out: pS6K IC50
Method: as §1, §2

[3] = tested on: 4EBP1 T37/T46 phosphorylation (mTORC1); test: AlphaLISA/MSD analysis of 4EBP1 phosphorylation in MDA-MB-468 cells; details: for IC50: Homo sapiens, read-out: p4EBP1 IC50; for reduction in mTORC1 p4EBP1 activity on going from 8 PEG units to 6 PEG units: versus the 8 PEG analog
Method: as §1, §2

[4] = MDA-MB-468 cells, read-out: pAKT IC50
[5] = up to a maximal test concentration of 1 μM

Row | SMILES | IC50 [1, 4] [nM] | IC50 [2] [nM] | IC50 ([3]; MDA-MB-468 cells) [nM] | selectivity for mTORC1 over mTORC2 ([3]; pAKT versus p4EBP1 inhibition, MDA-MB-468 cells) | pAKT inhibition [1, 5] | p4EBP1 inhibition [3, 5] | IC50 ([1]; MDA-MB-468, read-out: pAKT IC50) [nM] | reduction in mTORC1 p4EBP1 activity on going from 8 PEG units to 6 PEG units [3] [fold]
1 | CO[C@H]1C[C@@H]2CC[C@@H](C)[C@@](O)(O2)C(=O)C(=O)N2CCCC[C@H]2C(=O)O[C@H]([C@H](C)C[C@@H]2CC[C@@H](OCCCCc3cn(CCOCCOCCOCCOCCOCCOCCOCCOCCC(=O)NCCCCn4nc(-c5cc6cc(O)ccc6[nH]5)c5c(N)ncnc54)nn3)[C@H](OC)C2)CC(=O)[C@H](C)/C=C(\C)[C@@H](O)[C@@H](OC)C(=O)[C@H](C)C[C@H](C)/C=C/C=C/C=C/1C [compound 18] | 18 | 0.28 | 1.4 | approximately 13 fold |  |  |  | 
2 | CO[C@H]1C[C@@H]2CC[C@@H](C)[C@@](O)(O2)C(=O)C(=O)N2CCCC[C@H]2C(=O)O[C@H]([C@H](C)C[C@@H]2CC[C@@H](OCCOCc3cn(CCOCCOCCOCCOCCOCCOCCOCCOCCC(=O)NCCCCn4nc(-c5cc6cc(O)ccc6[nH]5)c5c(N)ncnc54)nn3)[C@H](OC)C2)CC(=O)[C@H](C)/C=C(\C)[C@@H](O)[C@@H](OC)C(=O)[C@H](C)C[C@H](C)/C=C/C=C/C=C/1C [compound 17, reference compound] | 24 | 0.47 | 2.5 |  |  |  |  | 
3 | CO[C@H]1C[C@@H]2CC[C@@H](C)[C@@](O)(O2)C(=O)C(=O)N2CCCC[C@H]2C(=O)O[C@H]([C@H](C)C[C@@H]2CC[C@@H](OCCCCc3cn(CCOCCOCCOCCOCCOCCOCCOCCOCCC(=O)NCCCCn4nc(-c5ccc6oc(N)nc6c5)c5c(N(C)C)ncnc54)nn3)[C@H](OC)C2)CC(=O)[C@H](C)/C=C(\C)[C@@H](O)[C@@H](OC)C(=O)[C@H](C)C[C@H](C)/C=C/C=C/C=C/1C [compound 23] | > 1000 | 0.29 | > 1000 |  | inactive | inactive |  | 
4 | CO[C@H]1C[C@@H]2CC[C@@H](C)[C@@](O)(O2)C(=O)C(=O)N2CCCC[C@H]2C(=O)O[C@H]([C@H](C)C[C@@H]2CC[C@@H](OCCCCc3cn(CCOCCOCCOCCOCCOCCOCCC(=O)NCCCCn4nc(-c5ccc6oc(N)nc6c5)c5c(N)ncnc54)nn3)[C@H](OC)C2)CC(=O)[C@H](C)/C=C(\C)[C@@H](O)[C@@H](OC)C(=O)[C@H](C)C[C@H](C)/C=C/C=C/C=C/1C [compound 27] | 5.2 | 0.26 | 1.1 |  |  |  |  | 
5 | Nc1ncnc2c1c(-c1cnc3[nH]ccc3c1)nn2C1CCCC1 [compound 8, PP121, reference compound] |  |  |  |  |  |  | 100 | 
6 | CO[C@H]1C[C@@H]2CC[C@@H](C)[C@@](O)(O2)C(=O)C(=O)N2CCCC[C@H]2C(=O)O[C@H]([C@H](C)C[C@@H]2CC[C@@H](OC(=O)NCCOCCOCCOCCOCCOCCOCCOCCOCCC(=O)NCCCCn3nc(-c4ccc5oc(N)nc5c4)c4c(N)ncnc43)[C@H](OC)C2)CC(=O)[C@H](C)/C=C(\C)[C@@H](O)[C@@H](OC)C(=O)[C@H](C)C[C@H](C)/C=C/C=C/C=C/1C [compound 29] | 3.6 | 0.61 | 1.7 |  |  |  |  | 
7 | CO[C@H]1C[C@@H]2CC[C@@H](C)[C@@](O)(O2)C(=O)C(=O)N2CCCC[C@H]2C(=O)O[C@H]([C@H](C)C[C@@H]2CC[C@@H](OC(=O)NCCOCCOCCOCCOCCOCCOCCOCCOCCC(=O)N3CCc4cc(Cn5nc(-c6ccc7oc(N)nc7c6)c6c(N)ncnc65)ccc4C3)[C@H](OC)C2)CC(=O)[C@H](C)/C=C(\C)[C@@H](O)[C@@H](OC)C(=O)[C@H](C)C[C@H](C)/C=C/C=C/C=C/1C [compound 30] | 4.7 | 0.19 | 0.42 |  |  |  |  | 
8 | CO[C@H]1C[C@@H]2CC[C@@H](C)[C@@](O)(O2)C(=O)C(=O)N2CCCC[C@H]2C(=O)O[C@H]([C@H](C)C[C@@H]2CC[C@@H](OCCCCc3cn(CCOCCOCCOCCOCCOCCOCCC(=O)NCCCCn4nc(-c5cc6cc(O)ccc6[nH]5)c5c(N)ncnc54)nn3)[C@H](OC)C2)CC(=O)[C@H](C)/C=C(\C)[C@@H](O)[C@@H](OC)C(=O)[C@H](C)C[C@H](C)/C=C/C=C/C=C/1C [compound 25] | 120 | 0.59 | 370 |  |  |  |  | > 250
9 | CO[C@H]1C[C@@H]2CC[C@@H](C)[C@@](O)(O2)C(=O)C(=O)N2CCCC[C@H]2C(=O)O[C@H]([C@H](C)C[C@@H]2CC[C@@H](OCCOCc3cn(CCOCCOCCOCCOCCOCCOCCOCCOCCC(=O)NCCCCn4nc(-c5ccc6oc(N)nc6c5)c5c(N)ncnc54)nn3)[C@H](OC)C2)CC(=O)[C@H](C)/C=C(\C)[C@@H](O)[C@@H](OC)C(=O)[C@H](C)C[C@H](C)/C=C/C=C/C=C/1C [compound 3, RapaLink-1, reference compound] | 6.7 | 0.93 | 1.7 |  |  |  |  | 
10 | CO[C@H]1C[C@@H]2CC[C@@H](C)[C@@](O)(O2)C(=O)C(=O)N2CCCC[C@H]2C(=O)O[C@H]([C@H](C)C[C@@H]2CC[C@@H](OCCCCc3cn(CCOCCOCCOCCOCCOCCOCCOCCOCCC(=O)NCCCCn4nc(-c5cnc6[nH]ccc6c5)c5c(N)ncnc54)nn3)[C@H](OC)C2)CC(=O)[C@H](C)/C=C(\C)[C@@H](O)[C@@H](OC)C(=O)[C@H](C)C[C@H](C)/C=C/C=C/C=C/1C [compound 20] | 17 | 0.22 | 1 |  |  |  |  | 
11 | COc1ccc(-c2ccc3ncc4c(c3c2)n(-c2ccc(N3CCN(C(=O)CCOCCOCCOCCOCCOCCOCCn5cc(CCCCO[C@@H]6CC[C@@H](C[C@@H](C)[C@@H]7CC(=O)[C@H](C)/C=C(\C)[C@@H](O)[C@@H](OC)C(=O)[C@H](C)C[C@H](C)/C=C/C=C/C=C(\C)[C@@H](OC)C[C@@H]8CC[C@@H](C)[C@@](O)(O8)C(=O)C(=O)N8CCCC[C@H]8C(=O)O7)C[C@H]6OC)nn5)CC3)c(C(F)(F)F)c2)c(=O)n4C)cn1 [compound 26] | 0.74 | 0.03 | 0.08 |  |  |  |  | 
12 | CO[C@H]1C[C@@H]2CC[C@@H](C)[C@@](O)(O2)C(=O)C(=O)N2CCCC[C@H]2C(=O)O[C@H]([C@H](C)C[C@@H]2CC[C@@H](OCCCCc3cn(CCOCCOCCOCCOCCOCCOCCC(=O)NCCCCn4nc(-c5cnc6[nH]ccc6c5)c5c(N)ncnc54)nn3)[C@H](OC)C2)CC(=O)[C@H](C)/C=C(\C)[C@@H](O)[C@@H](OC)C(=O)[C@H](C)C[C@H](C)/C=C/C=C/C=C/1C [compound 24] | 110 | 0.24 | 31 |  |  |  |  | > 30
13 | COc1ccc(-c2ccc3ncc4c(c3c2)n(C)c(=O)n4-c2ccc(N3CCN(C(=O)CCOCCOCCOCCOCCOCCOCCOCCOCCn4cc(CCCCO[C@@H]5CC[C@@H](C[C@@H](C)[C@@H]6CC(=O)[C@H](C)/C=C(\C)[C@@H](O)[C@@H](OC)C(=O)[C@H](C)C[C@H](C)/C=C/C=C/C=C(\C)[C@@H](OC)C[C@@H]7CC[C@@H](C)[C@@](O)(O7)C(=O)C(=O)N7CCCC[C@H]7C(=O)O6)C[C@H]5OC)nn4)CC3)c(C(F)(F)F)c2)cn1 [compound 19] | 0.52 | 0.02 | 0.06 |  |  |  |  | 
14 | CO[C@@H](C[C@@H]1CC[C@@H](C)[C@](O)(C(=O)C(=O)N2CCCC[C@H]2C(=O)O)O1)/C(C)=C/C=C/C=C/[C@@H](C)C[C@@H](C)C(=O)[C@H](OC)[C@H](O)/C(C)=C/[C@@H](C)C(=O)/C=C\[C@H](C)C[C@@H]1CC[C@@H](OCCCCc2cn(CCOCCOCCOCCOCCOCCOCCOCCOCCC(=O)NCCCCn3nc(-c4ccc5oc(N)nc5c4)c4c(N)ncnc43)nn2)[C@H](OC)C1 [compound 32] | 450 | 59 | 180 |  |  |  |  | 
15 | CO[C@H]1C[C@@H]2CC[C@@H](C)[C@@](O)(O2)C(=O)C(=O)N2CCCC[C@H]2C(=O)O[C@H]([C@H](C)C[C@@H]2CC[C@@H](OCCCCc3cn(CCOCCOCCOCCOCCOCCOCCOCCOCCC(=O)N4CCC(Cn5nc(-c6ccc7oc(N)nc7c6)c6c(N)ncnc65)CC4)nn3)[C@H](OC)C2)CC(=O)[C@H](C)/C=C(\C)[C@@H](O)[C@@H](OC)C(=O)[C@H](C)C[C@H](C)/C=C/C=C/C=C/1C [compound 22] | 1.8 | 0.16 | 0.67 |  |  |  |  | 
16 | CO[C@H]1C[C@@H]2CC[C@@H](C)[C@@](O)(O2)C(=O)C(=O)N2CCCC[C@H]2C(=O)O/C([C@H](C)C[C@@H]2CC[C@@H](OC(=O)NCCOCCOCCOCCOCCOCCOCCOCCOCCC(=O)N3CCc4cc(Cn5nc(-c6ccc7oc(N)nc7c6)c6c(N)ncnc65)ccc4C3)[C@H](OC)C2)=C/C(=O)[C@H](C)/C=C(\C)[C@@H](O)[C@@H](OC)C(=O)[C@H](C)C[C@H](C)/C=C/C=C/C=C/1C [compound 33] | > 1000 | 80 | 320 |  |  |  |  | 

— publication PMC9841523 (Journal of Medicinal Chemistry, 2022)
